Molecular target: T1, adult-type mouse AChR (α1-GFP, β, δ, ε), whole-cell (Mus musculus, UniProt P02716+P04756+P20782)
T1 construct: gene Chrna1; alpha1 with GFP encoded between M3 and M4; transient expression in HEK293, GFP-sorted cells; pentamer; no background mutations; with Acetylcholine receptor subunit beta
Assay: automated whole-cell patch clamp (IonFlux […]), concentration-response
Type: cell-based

T1 sequence (P20782 21-493): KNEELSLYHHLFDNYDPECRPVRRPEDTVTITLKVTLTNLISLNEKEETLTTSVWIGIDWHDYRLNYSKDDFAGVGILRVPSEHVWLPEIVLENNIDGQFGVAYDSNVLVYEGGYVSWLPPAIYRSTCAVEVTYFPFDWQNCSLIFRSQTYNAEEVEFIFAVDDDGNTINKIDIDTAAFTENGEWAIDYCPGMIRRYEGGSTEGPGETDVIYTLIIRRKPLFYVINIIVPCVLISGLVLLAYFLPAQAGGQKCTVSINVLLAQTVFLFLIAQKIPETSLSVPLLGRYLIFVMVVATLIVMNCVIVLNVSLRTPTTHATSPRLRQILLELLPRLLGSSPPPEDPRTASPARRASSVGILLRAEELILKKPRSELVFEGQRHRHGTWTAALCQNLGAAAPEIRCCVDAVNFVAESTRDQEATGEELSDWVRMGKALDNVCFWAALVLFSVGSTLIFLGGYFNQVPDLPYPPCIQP
T1 sequence (P02716 25-520): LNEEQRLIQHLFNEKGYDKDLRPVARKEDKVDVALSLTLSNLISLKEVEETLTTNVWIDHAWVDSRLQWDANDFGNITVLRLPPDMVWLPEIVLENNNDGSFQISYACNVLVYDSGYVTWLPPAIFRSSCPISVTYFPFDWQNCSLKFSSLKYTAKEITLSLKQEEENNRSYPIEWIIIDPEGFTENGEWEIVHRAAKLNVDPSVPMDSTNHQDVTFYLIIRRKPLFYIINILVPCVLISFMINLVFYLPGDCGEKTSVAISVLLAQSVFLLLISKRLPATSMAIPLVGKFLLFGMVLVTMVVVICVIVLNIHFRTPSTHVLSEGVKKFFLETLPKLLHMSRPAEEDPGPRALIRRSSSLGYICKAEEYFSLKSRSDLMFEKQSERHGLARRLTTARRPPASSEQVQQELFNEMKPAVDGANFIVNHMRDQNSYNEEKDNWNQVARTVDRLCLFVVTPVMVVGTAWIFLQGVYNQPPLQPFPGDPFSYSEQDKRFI
T1 sequence (P09690 24-501, further chain): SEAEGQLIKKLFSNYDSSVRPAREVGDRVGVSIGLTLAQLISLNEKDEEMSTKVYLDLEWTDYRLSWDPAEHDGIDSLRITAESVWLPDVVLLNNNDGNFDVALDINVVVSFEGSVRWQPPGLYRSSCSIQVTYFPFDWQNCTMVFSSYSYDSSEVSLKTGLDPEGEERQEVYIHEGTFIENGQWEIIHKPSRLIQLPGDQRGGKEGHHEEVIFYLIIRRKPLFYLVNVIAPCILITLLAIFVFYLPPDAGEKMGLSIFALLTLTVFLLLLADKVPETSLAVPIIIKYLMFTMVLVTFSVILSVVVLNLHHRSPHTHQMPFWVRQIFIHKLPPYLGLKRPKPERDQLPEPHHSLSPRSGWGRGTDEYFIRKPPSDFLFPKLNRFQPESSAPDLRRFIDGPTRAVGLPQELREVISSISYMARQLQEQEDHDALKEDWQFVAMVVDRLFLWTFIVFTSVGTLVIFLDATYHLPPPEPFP
T1 sequence (P04756 21-457): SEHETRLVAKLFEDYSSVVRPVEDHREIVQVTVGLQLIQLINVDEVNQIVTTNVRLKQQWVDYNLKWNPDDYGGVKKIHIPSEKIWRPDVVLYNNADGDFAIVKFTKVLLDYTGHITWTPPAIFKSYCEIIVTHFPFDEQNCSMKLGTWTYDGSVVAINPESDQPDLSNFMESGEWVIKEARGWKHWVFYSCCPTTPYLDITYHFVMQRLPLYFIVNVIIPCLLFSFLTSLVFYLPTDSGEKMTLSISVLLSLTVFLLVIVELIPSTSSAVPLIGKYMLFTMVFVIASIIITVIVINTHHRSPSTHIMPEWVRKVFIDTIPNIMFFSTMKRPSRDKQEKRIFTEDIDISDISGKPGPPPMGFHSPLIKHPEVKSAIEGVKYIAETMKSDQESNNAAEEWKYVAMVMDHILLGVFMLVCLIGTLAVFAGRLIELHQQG

Row | SMILES | EC50 [µM]
1 | C[N+](C)(C)CCOC(N)=O [CCh] | 72.2 ± 11
2 | C[N+](C)(C)C [TMA] | 843 ± 110

Reference: publication doi:10.1101/2020.10.13.337410v3, “Agonist efficiency from concentration-response curves: structural implications and applications” (biorxiv, 2021)
